Results: patent publication US20220251116A1, “ALKYLBORONIC ACIDS AS ARGINASE INHIBITORS” (Guangdong Newopp Biopharmaceuticals Co., Ltd., priority 2019, published 2022)
Where a name gives a salt, the structure may show the parent alone.

Target: T1, recombinant human arginase 1 (Homo sapiens, UniProt P05089)
T1 sequence (P05089 1-322): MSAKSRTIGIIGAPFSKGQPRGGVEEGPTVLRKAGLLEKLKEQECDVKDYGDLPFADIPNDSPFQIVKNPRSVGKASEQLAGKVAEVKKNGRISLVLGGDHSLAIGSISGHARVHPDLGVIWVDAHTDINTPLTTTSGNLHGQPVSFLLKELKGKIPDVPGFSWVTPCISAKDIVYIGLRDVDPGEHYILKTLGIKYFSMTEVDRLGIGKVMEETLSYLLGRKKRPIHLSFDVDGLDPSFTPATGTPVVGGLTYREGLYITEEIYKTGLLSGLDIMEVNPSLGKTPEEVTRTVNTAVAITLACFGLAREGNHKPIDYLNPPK
Test: Arginase inhibitory activity test, enzymatic assay based on urea measurement (Arg 1);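 further: enzyme incubated with L-arginine substrate and compound at 37 °C for 120 min, urea product detected colorimetrically by absorbance at 450 nm, background from wells lacking enzyme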
Protocol: An enzymatic assay with recombinant human arginases 1 or 2 was used to measure inhibitory activity of the compounds. The assay is based on urea measurement, which is a product of L-arginine enzymatic degradation.
Briefly, arginase and the substrate solution containing L-arginine were incubated in the absence or presence of varying concentrations of compounds at 37° C. for 120 min. For the background correction, only the substrate solution was added without arginase. The urea detection reagent from QuantiChrome™ Urea assay kit (BioAssay Systems, CA) was added to develop the color product. After 60 min at room temperature, the absorbance was measured at 450 nm with CLARIOstar (BMG LABTECH). Urea was used as the standard.

IC50 [nM] | Structure (SMILES)
1000 to 10000 | CNS(=O)(=O)N1C[C@H](CCCB(O)O)[C@](N)(C(=O)O)C1 (racemic) [Example 2, (rac)trans-3-amino-4-(3-boronopropyl)-1-(N-methylsulfamoyl)pyrrolidine-3-carboxylic acid, (1:1) 2,2,2-trifluoroacetic acid salt]
1000 to 10000 | NC(=O)CNS(=O)(=O)N1C[C@H](CCCB(O)O)[C@](N)(C(=O)O)C1 (racemic) [Example 7, (rac)trans-3-amino-1-(N-(2-amino-2-oxoethyl)sulfamoyl)-4-(3-boronopropyl)pyrrolidine-3-carboxylic acid, (1:1) 2,2,2-trifluoroacetic acid salt]
100 to 1000 | NCC(=O)NS(=O)(=O)N1C[C@H](CCCB(O)O)[C@](N)(C(=O)O)C1 (racemic) [Example 8, (rac)trans-3-amino-4-(3-boronopropyl)-1-(N-glycylsulfamoyl)pyrrolidine-3-carboxylic acid, (1:2) 2,2,2-trifluoroacetic acid salt]
100 to 1000 | CC(C)(O)CNS(=O)(=O)N1C[C@H](CCCB(O)O)[C@](N)(C(=O)O)C1 (racemic) [Example 9, (rac)trans-3-amino-4-(3-boronopropyl)-1-(N-(2-hydroxy-2-methylpropyl)sulfamoyl)pyrrolidine-3-carboxylic acid, (1:1) 2,2,2-trifluoroacetic acid salt]
100 to 1000 | N[C@@]1(C(=O)O)CN(S(=O)(=O)NCCO)C[C@@H]1CCCB(O)O (racemic) [Example 10, (rac)trans-3-amino-4-(3-boronopropyl)-1-(N-(2-hydroxyethyl)sulfamoyl)pyrrolidine-3-carboxylic acid (1:1), 2,2,2-trifluoroacetic acid salt]
1000 to 10000 | CC(C)C(NS(=O)(=O)N1CC(CCCB(O)O)C(N)(C(=O)O)C1)C(=O)O (racemic) [Example 11, (rac)trans-3-amino-4-(3-boronopropyl)-1-(N-((S)-1-carboxy-2-methylpropyl)sulfamoyl)pyrrolidine-3-carboxylic acid (diastereomer), (1:1) 2,2,2-trifluoroacetic acid salt]
< 100 | NCC1(NS(=O)(=O)N2C[C@H](CCCB(O)O)[C@](N)(C(=O)O)C2)CC1 (racemic) [Example 12, (rac)trans-3-amino-1-(N-(1-(aminomethyl)cyclopropyl)sulfamoyl)-4-(3-boronopropyl)pyrrolidine-3-carboxylic acid, (1:2) 2,2,2-trifluoroacetic acid salt]
100 to 1000 | Nc1ccccc1NS(=O)(=O)N1C[C@H](CCCB(O)O)[C@](N)(C(=O)O)C1 (racemic) [Example 13, (rac)trans-3-amino-1-(N-(2-aminophenyl)sulfamoyl)-4-(3-boronopropyl)pyrrolidine-3-carboxylic acid, (1:2) 2,2,2-trifluoroacetic acid salt]
< 100 | N[C@@H]1C[C@H]1NS(=O)(=O)N1C[C@H](CCCB(O)O)[C@](N)(C(=O)O)C1 (racemic) [Example 15, (3R,4S)-3-amino-1-(N-((rac)trans-2-aminocyclopropyl)sulfamoyl)-4-(3-boronopropyl)pyrrolidine-3-carboxylic acid (diastereomers), (1:2) 2,2,2-trifluoroacetic acid salt]
< 100 | C[C@H](CN)NS(=O)(=O)N1C[C@H](CCCB(O)O)[C@](N)(C(=O)O)C1 (racemic) [Example 16, (rac)trans-3-amino-1-(N-((R)-1-aminopropan-2-yl)sulfamoyl)-4-(3-boronopropyl)pyrrolidine-3-carboxylic acid (diastereomers), 2,2,2-trifluoroacetic acid salt (1:2)]
< 100 | C[C@@H](N)CNS(=O)(=O)N1C[C@H](CCCB(O)O)[C@](N)(C(=O)O)C1 (racemic) [Example 17, (rac)trans-3-amino-1-(N-((R)-2-aminopropyl)sulfamoyl)-4-(3-boronopropyl)pyrrolidine-3-carboxylic acid (diastereomers), 2,2,2-trifluoroacetic acid salt (1:2) (Diasteromers)]
100 to 1000 | NC1(CNS(=O)(=O)N2C[C@H](CCCB(O)O)[C@](N)(C(=O)O)C2)CC1 (racemic) [Example 19, (rac)-(trans)3-amino-1-(N-((1-aminocyclopropyl)methyl)sulfamoyl)-4-(3-boronopropyl)pyrrolidine-3-carboxylic acid, 2,2,2-trifluoroacetic acid salt (1:2)]
> 10000 | N[C@@H]1CCCCC1NS(=O)(=O)N1C[C@H](CCCB(O)O)[C@](N)(C(=O)O)C1 (mixture of isomers) [Example 20, (rac)trans-3-amino-1-(N-((rac)cis-2-aminocyclohexyl)sulfamoyl)-4-(3-boronopropyl)pyrrolidine-3-carboxylic acid (diastereomers), 2,2,2-trifluoroacetic acid salt (1:2)]
100 to 1000 | NCCCNS(=O)(=O)N1C[C@H](CCCB(O)O)[C@](N)(C(=O)O)C1 (racemic) [Example 21, (rac)-trans-3-amino-1-(N-(3-aminopropyl)sulfamoyl)-4-(3-boronopropyl)pyrrolidine-3-carboxylic acid (diastereomers), 2,2,2-trifluoroacetic acid salt (1:2)]
100 to 1000 | N[C@H]1CCCCC1NS(=O)(=O)N1C[C@H](CCCB(O)O)[C@](N)(C(=O)O)C1 (mixture of isomers) [Example 22, (rac)-trans-3-amino-1-(N-(trans-2-aminocyclohexyl)sulfamoyl)-4-(3-boronopropyl)pyrrolidine-3-carboxylic acid (diastereomers), 2,2,2-trifluoroacetic acid salt (1:2)]
100 to 1000 | N[C@H]1COCC1NS(=O)(=O)N1C[C@H](CCCB(O)O)[C@](N)(C(=O)O)C1 (mixture of isomers) [Example 23, (rac)-trans-3-amino-1-(N-((rac)cis-4-aminotetrahydrofuran-3-yl)sulfamoyl)-4-(3-boronopropyl)pyrrolidine-3-carboxylic acid (diastereomers), 2,2,2-trifluoroacetic acid salt (1:2)]
< 100 | NC1CC(NS(=O)(=O)N2C[C@H](CCCB(O)O)[C@](N)(C(=O)O)C2)C1 (mixture of isomers) [Example 24, (rac)-trans-3-amino-1-(N-((rac)trans-3-aminocyclobutyl)sulfamoyl)-4-(3-boronopropyl)pyrrolidine-3-carboxylic acid compound with 2,2,2-trifluoroacetic acid (1:2)]
100 to 1000 | NC1CN(S(=O)(=O)N2C[C@H](CCCB(O)O)[C@](N)(C(=O)O)C2)C1 (racemic) [Example 33, (rac)-trans-3-amino-1-((3-aminoazetidin-1-yl)sulfonyl)-4-(3-boronopropyl)pyrrolidine-3-carboxylic acid, 2,2,2-trifluoroacetic acid salt (1:2)]
< 100 | N[C@@]1(C(=O)O)CN(S(=O)(=O)NC2CNC2)C[C@@H]1CCCB(O)O (racemic) [Example 34, (rac)-trans-3-amino-1-(N-(azetidin-3-yl)sulfamoyl)-4-(3-boronopropyl)pyrrolidine-3-carboxylic acid, 2,2,2-trifluoroacetic acid salt (1:2)]
100 to 1000 | C[C@@H](N)C(=O)NS(=O)(=O)N1C[C@H](CCCB(O)O)[C@](N)(C(=O)O)C1 (racemic) [Example 35, (rac)-trans-1-(N-alanylsulfamoyl)-3-amino-4-(3-boronopropyl)pyrrolidine-3-carboxylic acid, 2,2,2-trifluoroacetic acid salt (1:2)]
< 100 | CC1(C)[C@H]2C[C@@H]3OB(CCC[C@H]4CN(S(=O)(=O)NCCN)C[C@@]4(N)C(=O)O)O[C@]3(C)[C@@H]1C2 (racemic) [Example 36]
100 to 1000 | N=C(NC(=O)CN)N1C[C@H](CCCB(O)O)[C@](N)(C(=O)O)C1 (racemic) [Example 38, rac-(trans)-3-amino-4-(3-boronopropyl)-1-(N-glycylcarbamimidoyl)pyrrolidine-3-carboxylic acid, 2,2,2-trifluoroacetic acid salt (1:2)]
100 to 1000 | NC1(CNS(=O)(=O)N2C[C@H](CCCB(O)O)[C@](N)(C(=O)O)C2)COC1 (racemic) [Example 39, (rac)-trans-3-amino-1-(N-((3-aminooxetan-3-yl)methyl)sulfamoyl)-4-(3-boronopropyl)pyrrolidine-3-carboxylic acid, 2,2,2-trifluoroacetic acid salt (1:2)]
100 to 1000 | NC1COCC1NS(=O)(=O)N1CC(CCCB(O)O)C(N)(C(=O)O)C1 (racemic) [Example 41, (rac)-trans-3-amino-1-(N-((trans)-4-aminotetrahydrofuran-3-yl)sulfamoyl)-4-(3-boronopropyl)pyrrolidine-3-carboxylic acid, 2,2,2-trifluoroacetic acid salt (1:2)]
< 100 | CN(C1CNC1)S(=O)(=O)N1C[C@H](CCCB(O)O)[C@](N)(C(=O)O)C1 (racemic) [Example 42, (rac)-trans-3-amino-1-(N-(azetidin-3-yl)-N-methylsulfamoyl)-4-(3-boronopropyl)pyrrolidine-3-carboxylic acid, 2,2,2-trifluoroacetic acid salt (1:2)]
100 to 1000 | CC1(NS(=O)(=O)N2C[C@H](CCCB(O)O)[C@](N)(C(=O)O)C2)CNC1 (racemic) [Example 43, (rac)-trans-3-amino-4-(3-boronopropyl)-1-(N-(3-methylazetidin-3-yl)sulfamoyl)pyrrolidine-3-carboxylic acid, 2,2,2-trifluoroacetic acid salt (1:2)]
100 to 1000 | CN1CCN(S(=O)(=O)N2C[C@H](CCCB(O)O)[C@](N)(C(=O)O)C2)CC1 (racemic) [Example 44, (racemic)-trans-3-amino-4-(3-boronopropyl)-1-((4-methylpiperazin-1-yl)sulfonyl)pyrrolidine-3-carboxylic acid, 2,2,2-trifluoroacetic acid salt (1:2)]
